The values below come from patent US20170143738A1, “SOLID FORMULATION AND METHOD FOR STABILIZING THE SAME” (EA Pharma Co., Ltd., priority 2014, published 2017).

Data set [1] is described as follows: Storage stability of Elobixibat alone or mixed 1:1 with an additive: total related substance(s) by HPLC. Type of data set: physicochemical. Particulars: stored in an open state for 2 weeks, 60° C. and 75% relative humidity. The protocol:
(§1) 1,1-dioxo-3,3-dibutyl-5-phenyl-7-methylthio-8-(N—{(R)-1′-phenyl-1′-[N′-(carboxymethyl)carbamoyl]methyl}carbamoylmethoxy)-2,3,4,5-tetrahydro-1,5-benzothiazepine (Elobixibat) and an additive shown in Table 1 were mixed in a weight ratio of 1:1. Thereby, the mixtures according to Reference Examples 2 to 10 were obtained. The mixture of each of Reference Examples 2 to 10, and only Elobixibat as Reference Example 1 was independently stored in an open state for 2 weeks under the conditions of 60° C. and 75% relative humidity. The material of Reference Example 1 and the mixtures according to Reference Examples 2 to 10 after storage were independently dispersed and dissolved in acetonitrile aqueous solution. The total amount of related substance(s) in the aforementioned aqueous solution was calculated as the sum of the areas in percentage for Elobixibat by the measurement in accordance with an HPLC method. In addition, the presence or absence of coloration of the mixtures of Reference Examples 1 to 7 after storage was visually observed. “%” shown in Table 1 indicates percent by weight.

Data set [2] can be described thus: Visual observation of coloration of Elobixibat and Elobixibat/additive mixtures after storage. The settings on record: 60° C. and 75% relative humidity, visually observed. Type of data set: physicochemical. The protocol:
as §1

As for `CCCCC1(CCCC)CN(c2ccccc2)c2cc(SC)c(OCC(=O)N[C@@H](C(=O)NCC(=O)O)c3ccccc3)cc2S(=O)(=O)C1` [Reference Example 1, 1,1-dioxo-3,3-dibutyl-5-phenyl-7-methylthio-8-(N—{(R)-1′-phenyl-1′-[N′-(carboxymethyl)carbamoyl]methyl}carbamoylmethoxy)-2,3,4,5-tetrahydro-1,5-benzothiazepine], the “Increase of the amount of related substance(s) after storage (in words)” value in data set [1] (summary of Table 1) is “a great increase of the related substance(s) was not observed”. Besides, the “Total amount of related substance(s) after storage” value in data set [1] (weight ratio 1:1 with additive, sum of HPLC areas in percentage for Elobixibat) is on record as 0.6%. Moreover, the “Coloration: Before storage → after storage” value in data set [2] (colour before and after 2 weeks open storage) is listed as “White → white”. Further, the Coloration after storage entry in data set [2] (stored in an open state for 2 weeks) is given as “Not observed”.
